For the test, the system named is MV-4-11 cells. Briefly: Gene expression microarray analysis (Affymetrix PrimeView) and GSEA. The class given is cell-based, human. Also on record: RFU PODN (11730768_x_at) / Fold change /veh PODN (11730768_x_at) / RFU LINC00158 (11744669_a_at) / Fold change /veh LINC00158 (11744669_a_at) / RFU DUSP10 (11751237_a_at) / Fold change /veh DUSP10 (11751237_a_at) / RFU ID3 (11757404_x_at) / Fold change /veh ID3 (11757404_x_at) / RFU PLEKHG5 (11737974_s_at) / Fold change /veh PLEKHG5 (11737974_s_at) / RFU LRRC4B (11730491_at) / Fold change /veh LRRC4B (11730491_at) / RFU GIMAP4 (11747438_a_at) / Fold change /veh GIMAP4 (11747438_a_at) / RFU KRT8 (11758183_x_at) / Fold change /veh KRT8 (11758183_x_at) / RFU CNN1 (11734310_a_at) / Fold change /veh CNN1 (11734310_a_at) / RFU VPS37D (11726825_at) / Fold change /veh VPS37D (11726825_at) / RFU C10orf10 (11716522_x_at) / Fold change /veh C10orf10 (11716522_x_at) / RFU KIR2DL2 /// KIR2DL4 /// KIR2DL5A /// KIR2DL5B /// KIR2DS1 /// KIR2DS2 /// KIR2DS3 /// KIR2DS4 /// KIR3DL3 /// KIR3DL3 /// KIR3DS1 (11738374_at) / Fold change /veh KIR2DL2 /// KIR2DL4 /// KIR2DL5A /// KIR2DL5B /// KIR2DS1 /// KIR2DS2 /// KIR2DS3 /// KIR2DS4 /// KIR3DL3 /// KIR3DL3 /// KIR3DS1 (11738374_at) / RFU C1QL1 (11718748_at) / Fold change /veh C1QL1 (11718748_at) / RFU TMPRSS4 (11747572_a_at) / Fold change /veh TMPRSS4 (11747572_a_at) / RFU HAMP (11756126_x_at) / Fold change /veh HAMP (11756126_x_at) / RFU RNFT2 (11725882_a_at) / Fold change /veh RNFT2 (11725882_a_at) / RFU NR4A2 (11747474_a_at) / Fold change /veh NR4A2 (11747474_a_at) / RFU ABCC12 (11746883_a_at) / Fold change /veh ABCC12 (11746883_a_at) / RFU TMEM136 (11760407_x_at) / Fold change /veh TMEM136 (11760407_x_at) / RFU CLDN22 /// WWC2 (11732394_at) / Fold change /veh CLDN22 /// WWC2 (11732394_at) / RFU HLA-DPB1 (11760878_x_at) / Fold change /veh HLA-DPB1 (11760878_x_at) / RFU SPINT1 (11716480_a_at) / Fold change /veh SPINT1 (11716480_a_at) / RFU GAP43 (11754022_s_at) / Fold change /veh GAP43 (11754022_s_at) / RFU A4GNT (11735810_at) / Fold change /veh A4GNT (11735810_at) / RFU PRB3 (11715151_x_at) / Fold change /veh PRB3 (11715151_x_at) / RFU TUBB4B (11761932_at) / Fold change /veh TUBB4B (11761932_at) / RFU CAPN14 (11732068_a_at) / Fold change /veh CAPN14 (11732068_a_at) / RFU TMCC2 (11721928_a_at) / Fold change /veh TMCC2 (11721928_a_at) / RFU IRGQ (11745062_a_at) / Fold change /veh IRGQ (11745062_a_at) / RFU FAM174B (11720279_a_at) / Fold change /veh FAM174B (11720279_a_at) / RFU TMPRSS4 (11748680_a_at) / Fold change /veh TMPRSS4 (11748680_a_at) / RFU FAM212B (11763350_a_at) / Fold change /veh FAM212B (11763350_a_at) / RFU PLEKHG5 (11743358_a_at) / Fold change /veh PLEKHG5 (11743358_a_at) / RFU ZSCAN30 (11745921_a_at) / Fold change /veh ZSCAN30 (11745921_a_at) / RFU CMKLR1 (11741424_a_at) / Fold change /veh CMKLR1 (11741424_a_at) / RFU LOC101060620 /// MAPK8IP1 (11723275_at) / Fold change /veh LOC101060620 /// MAPK8IP1 (11723275_at) / RFU SPTSSB (11747773_x_at) / Fold change /veh SPTSSB (11747773_x_at) / RFU PRSS12 (11739890_at) / Fold change /veh PRSS12 (11739890_at) / RFU BIN1 (11741810_x_at) / Fold change /veh BIN1 (11741810_x_at) / RFU WNT11 (11732464_a_at) / Fold change /veh WNT11 (11732464_a_at) / RFU C10orf10 (11716521_a_at) / Fold change /veh C10orf10 (11716521_a_at) / RFU C5orf56 (11738089_at) / Fold change /veh C5orf56 (11738089_at) / RFU CYB561 (11721691_x_at) / Fold change /veh CYB561 (11721691_x_at) / RFU ANKRD19P (11752326_a_at) / Fold change /veh ANKRD19P (11752326_a_at) / RFU OR2T12 /// OR2T33 /// OR2T8 (11738714_s_at) / Fold change /veh OR2T12 /// OR2T33 /// OR2T8 (11738714_s_at) / RFU VCAN (11748164_a_at) / Fold change /veh VCAN (11748164_a_at) / RFU JSRP1 (11732532_at) / Fold change /veh JSRP1 (11732532_at) / RFU KRTAP10-11 (11738290_x_at) / Fold change /veh KRTAP10-11 (11738290_x_at) / RFU MYO3A (11730013_a_at) / Fold change /veh MYO3A (11730013_a_at) / RFU EBF3 (11725865_a_at) / Fold change /veh EBF3 (11725865_a_at) / RFU CAMK2N1 (11719241_x_at) / Fold change /veh CAMK2N1 (11719241_x_at) / RFU C5orf56 (11738088_a_at) / Fold change /veh C5orf56 (11738088_a_at) / RFU OLFML3 (11715873_a_at) / Fold change /veh OLFML3 (11715873_a_at) / RFU LOC100653217 /// NTM (11731650_a_at) / Fold change /veh LOC100653217 /// NTM (11731650_a_at) / RFU MAPK11 (11762145_a_at) / Fold change /veh MAPK11 (11762145_a_at) / RFU FIZ1 (11724087_x_at) / Fold change /veh FIZ1 (11724087_x_at) / RFU OASL (11726364_x_at) / Fold change /veh OASL (11726364_x_at) / RFU SOX15 (11748057_x_at) / Fold change /veh SOX15 (11748057_x_at) / RFU CD79A (11719716_a_at) / Fold change /veh CD79A (11719716_a_at) / RFU HIST1H1D (11736915_at) / Fold change /veh HIST1H1D (11736915_at) / RFU CASKIN2 (11723855_a_at) / Fold change /veh CASKIN2 (11723855_a_at) / RFU LOC730098 (11760151_x_at) / Fold change /veh LOC730098 (11760151_x_at) / RFU OR4N2 (11742367_at) / Fold change /veh OR4N2 (11742367_at) / RFU PRRT2 (11749266_a_at) / Fold change /veh PRRT2 (11749266_a_at) / RFU SNX32 (11753110_a_at) / Fold change /veh SNX32 (11753110_a_at) / RFU CDHR5 (11726645_a_at) / Fold change /veh CDHR5 (11726645_a_at) / RFU RCAN1 (11760418_a_at) / Fold change /veh RCAN1 (11760418_a_at) / RFU FAM167A (11723789_a_at) / Fold change /veh FAM167A (11723789_a_at) / RFU FAM26E (11764081_at) / Fold change /veh FAM26E (11764081_at) / RFU ISYNA1 (11749810_s_at) / Fold change /veh ISYNA1 (11749810_s_at) / RFU ACY1 (11761880_at) / Fold change /veh ACY1 (11761880_at) / RFU 11764098_at / Fold change /veh 11764098_at / RFU SAMD14 (11745864_x_at) / Fold change /veh SAMD14 (11745864_x_at) / RFU NPB (11741838_a_at) / Fold change /veh NPB (11741838_a_at) / RFU TMPRSS6 (11731388_a_at) / Fold change /veh TMPRSS6 (11731388_a_at) / RFU KRTAP10-2 (11738614_at) / Fold change /veh KRTAP10-2 (11738614_at) / RFU ARHGAP8 /// PRR5-ARHGAP8 (11727945_x_at) / Fold change /veh ARHGAP8 /// PRR5-ARHGAP8 (11727945_x_at) / RFU KRTAP5-7 /// NADSYN1 (11734609_at) / Fold change /veh KRTAP5-7 /// NADSYN1 (11734609_at) / RFU RASL12 (11751679_a_at) / Fold change /veh RASL12 (11751679_a_at) / RFU CDKN2B (11736163_a_at) / Fold change /veh CDKN2B (11736163_a_at) / RFU PRF1 (11729649_at) / Fold change /veh PRF1 (11729649_at) / RFU, ZNF638 /// ZNF638-IT1 / Fold change vs veh, ZNF638 /// ZNF638-IT1 / RFU, PANK3 / Fold change vs veh, PANK3 / RFU, SH3YL1 / Fold change vs veh, SH3YL1 / RFU, ZEB2 / Fold change vs veh, ZEB2 / RFU, NRIP1 / Fold change vs veh, NRIP1 / RFU, PTTG1IP / Fold change vs veh, PTTG1IP / RFU, CAPN2 / Fold change vs veh, CAPN2 / RFU, MED14 / Fold change vs veh, MED14 / RFU, SNORA58 / Fold change vs veh, SNORA58 / RFU, C1orf63 / Fold change vs veh, C1orf63 / RFU, LRRFIP1 / Fold change vs veh, LRRFIP1 / RFU, NDUFAF7 / Fold change vs veh, NDUFAF7 / RFU, SLC12A2 / Fold change vs veh, SLC12A2 / RFU, IBTK / Fold change vs veh, IBTK / RFU, ESF1 / Fold change vs veh, ESF1 / Fold change vs veh, TMEM50B / RFU, TAOK1 / Fold change vs veh, TAOK1 / RFU, ACBD3 / Fold change vs veh, ACBD3 / RFU, TMA16 / Fold change vs veh, TMA16 / RFU, RWDD3 / Fold change vs veh, RWDD3 / RFU, BCAT1 / Fold change vs veh, BCAT1 / RFU, EDEM3 / Fold change vs veh, EDEM3 / RFU, TMEM33 / Fold change vs veh, TMEM33 / RFU, WDR75 / Fold change vs veh, WDR75 / RFU, AHCTF1 / Fold change vs veh, AHCTF1 / RFU, TFRC / Fold change vs veh, TFRC / RFU, ZDHHC17 / Fold change vs veh, ZDHHC17 / RFU, NOM1 / Fold change vs veh, NOM1 / RFU, ARL8B / Fold change vs veh, ARL8B / RFU, ZBTB11 / Fold change vs veh, ZBTB11 / RFU, TAMM41 / Fold change vs veh, TAMM41 / RFU, KIAA1704 /// LOC100996395 / Fold change vs veh, KIAA1704 /// LOC100996395 / RFU, ING1 / Fold change vs veh, ING1 / RFU, TRMT61B / Fold change vs veh, TRMT61B / RFU, FUBP3 / Fold change vs veh, FUBP3 / RFU, TP53 / Fold change vs veh, TP53 / RFU, TNKS2 / Fold change vs veh, TNKS2 / RFU, ZFP14 / Fold change vs veh, ZFP14 / RFU, ACTR2 / Fold change vs veh, ACTR2 / RFU, PPP3R1 / Fold change vs veh, PPP3R1 / RFU, PIK3R1 / Fold change vs veh, PIK3R1 / RFU, HNRNPA1 / Fold change vs veh, HNRNPA1 / RFU, RNF170 / Fold change vs veh, RNF170 / RFU, ZNF28 / Fold change vs veh, ZNF28 / RFU, RNGTT / Fold change vs veh, RNGTT / RFU, OGT / Fold change vs veh, OGT / RFU, BRD1 / Fold change vs veh, BRD1 / RFU, MARS / Fold change vs veh, MARS / RFU, ZNF655 / Fold change vs veh, ZNF655 / RFU, FAHD1 / Fold change vs veh, FAHD1 / RFU, BDP1 / Fold change vs veh, BDP1 / RFU, LRRCC1 / Fold change vs veh, LRRCC1 / RFU, ARID1A / Fold change vs veh, ARID1A / RFU, ZNF146 / Fold change vs veh, ZNF146 / RFU, ZNF330 / Fold change vs veh, ZNF330 / RFU, GPN3 / Fold change vs veh, GPN3 / RFU, C9orf123 / Fold change vs veh, C9orf123 / RFU, N4BP2L2 / Fold change vs veh, N4BP2L2 / RFU, ARFIP1 / Fold change vs veh, ARFIP1 / RFU, FAM179B / Fold change vs veh, FAM179B / RFU, BCL10 / Fold change vs veh, BCL10 / RFU, UHRF1BP1L / Fold change vs veh, UHRF1BP1L / RFU, BET1 / Fold change vs veh, BET1 / RFU, CNOT2 / Fold change vs veh, CNOT2 / RFU, ZNF268 / Fold change vs veh, ZNF268 / Fold change vs veh, ZNF507 / RFU, DGCR2 / Fold change vs veh, DGCR2 / RFU, WDSUB1 / Fold change vs veh, WDSUB1 / Fold change vs veh, HSP90B1 /// MIR3652 / RFU, ADSS / Fold change vs veh, ADSS / RFU, GK / Fold change vs veh, GK / RFU, ZNF148 / Fold change vs veh, ZNF148 / RFU, TAF9 / Fold change vs veh, TAF9 / RFU, SLC1A5 / Fold change vs veh, SLC1A5 / RFU, SLMO2 / Fold change vs veh, SLMO2 / RFU, ABCC4 / Fold change vs veh, ABCC4 / RFU, LOC101060439 /// RAP1B / Fold change vs veh, LOC101060439 /// RAP1B / RFU, RFX7 / Fold change vs veh, RFX7 / RFU, GTPBP10 / Fold change vs veh, GTPBP10 / RFU, CNEP1R1 / Fold change vs veh, CNEP1R1 / RFU, BIVM-ERCC5 /// ERCC5 / Fold change vs veh, BIVM-ERCC5 /// ERCC5 / RFU, ILF3 / Fold change vs veh, ILF3 / RFU 11762660_at / Fold change /veh 11762660_at / RFU VCAN (11757783_s_at) / Fold change /veh VCAN (11757783_s_at) / RFU DDX43 (11728927_at) / Fold change /veh DDX43 (11728927_at) / RFU KRT8 (11758188_x_at) / Fold change /veh KRT8 (11758188_x_at) / RFU NKD1 (11759106_at) / Fold change /veh NKD1 (11759106_at) / RFU SRD5A1 (11742802_a_at) / Fold change /veh SRD5A1 (11742802_a_at) / RFU TPSAB1 /// TPSB2 (11721975_s_at) / Fold change /veh TPSAB1 /// TPSB2 (11721975_s_at) / RFU GSTM3 (11746129_a_at) / Fold change /veh GSTM3 (11746129_a_at) / RFU IL23R (11737362_x_at) / Fold change /veh IL23R (11737362_x_at) / RFU TMEM51 (11727254_a_at) / Fold change /veh TMEM51 (11727254_a_at) / RFU PIWIL2 (11732686_x_at) / Fold change /veh PIWIL2 (11732686_x_at) / RFU ORM1 (11744905_x_at) / Fold change /veh ORM1 (11744905_x_at) / RFU CCDC152 (11743942_at) / Fold change /veh CCDC152 (11743942_at) / RFU ECM1 (11717891_a_at) / Fold change /veh ECM1 (11717891_a_at) / RFU IL23R (11748794_a_at) / Fold change /veh IL23R (11748794_a_at) / RFU TNFAIP8L3 (11732012_x_at) / Fold change /veh TNFAIP8L3 (11732012_x_at) / RFU MBOAT4 (11741988_at) / Fold change /veh MBOAT4 (11741988_at) / RFU 11764193_at / Fold change /veh 11764193_at / RFU TMEM53 (11763286_at) / Fold change /veh TMEM53 (11763286_at) / RFU MAGEB2 (11727129_at) / Fold change /veh MAGEB2 (11727129_at) / RFU TMEM200A (11744735_a_at) / Fold change /veh TMEM200A (11744735_a_at) / RFU CCDC152 (11751479_a_at) / Fold change /veh CCDC152 (11751479_a_at) / RFU FAM211A (11726209_a_at) / Fold change /veh FAM211A (11726209_a_at) / RFU RGS16 (11746705_a_at) / Fold change /veh RGS16 (11746705_a_at) / RFU VCAN (11755009_s_at) / Fold change /veh VCAN (11755009_s_at) / RFU RHOB (11743442_s_at) / Fold change /veh RHOB (11743442_s_at) / RFU RGS16 (11720943_a_at) / Fold change /veh RGS16 (11720943_a_at) / RFU RGS16 (11720944_at) / Fold change /veh RGS16 (11720944_at) / RFU, VPS4B / Fold change vs veh, VPS4B / RFU, CREB1 / Fold change vs veh, CREB1 / RFU, DNAJC13 / Fold change vs veh, DNAJC13 / RFU, GNAQ / Fold change vs veh, GNAQ / RFU, CDK5R1 / Fold change vs veh, CDK5R1 / RFU, ZRANB3 / Fold change vs veh, ZRANB3 / RFU, CUL4A / Fold change vs veh, CUL4A / RFU, CCNY / Fold change vs veh, CCNY / RFU, UFL1 / Fold change vs veh, UFL1 / RFU, COG3 / Fold change vs veh, COG3 / RFU, DIAPH2 / Fold change vs veh, DIAPH2 / RFU, SKA2 / Fold change vs veh, SKA2 / RFU, AFF3 / Fold change vs veh, AFF3 / RFU, LMF1 / Fold change vs veh, LMF1 / RFU, IPO11 / Fold change vs veh, IPO11 / RFU, DFFB / Fold change vs veh, DFFB / RFU, FOXP1 / Fold change vs veh, FOXP1 / RFU, CARD8 / Fold change vs veh, CARD8 / RFU, STRN3 / Fold change vs veh, STRN3 / RFU, ADK / Fold change vs veh, ADK / RFU, RASSF2 / Fold change vs veh, RASSF2 / RFU, WIPF1 / Fold change vs veh, WIPF1 / RFU, LARP1B / Fold change vs veh, LARP1B / RFU, RASA1 / Fold change vs veh, RASA1 / RFU, RB1 / Fold change vs veh, RB1 / RFU, PPFIA1 / Fold change vs veh, PPFIA1 / RFU, MAT2A / Fold change vs veh, MAT2A / RFU, CCT5 / Fold change vs veh, CCT5 / RFU, WDR92 / Fold change vs veh, WDR92 / RFU, CUX1 / Fold change vs veh, CUX1 / RFU, TTC7A / Fold change vs veh, TTC7A / RFU, TMEM135 / Fold change vs veh, TMEM135 / RFU, DEPTOR / Fold change vs veh, DEPTOR / RFU, CPM / Fold change vs veh, CPM / RFU, DNAJB6 / Fold change vs veh, DNAJB6 / RFU, CACNA2D3 / Fold change vs veh, CACNA2D3 / RFU, DTX4 / Fold change vs veh, DTX4 / RFU, TFCP2 / Fold change vs veh, TFCP2 / RFU, GMCL1 /// GMCL1P1 / Fold change vs veh, GMCL1 /// GMCL1P1 / RFU, AEBP2 / Fold change vs veh, AEBP2 / RFU, SNHG1 /// SNORD22 /// SNORD25 /// SNORD26 /// SNORD27 /// SNORD28 /// SNORD29 /// SNORD31 / Fold change vs veh, SNHG1 /// SNORD22 /// SNORD25 /// SNORD26 /// SNORD27 /// SNORD28 /// SNORD29 /// SNORD31 / Fold change (Aza/veh), C12orf56 (ProbeSet 11735607_a_at) / Fold change (ACY-1035/veh), C12orf56 (ProbeSet 11735607_a_at) / Fold change (Aza/veh), FGFR1OP (ProbeSet 11751329_s_at) / Fold change (ACY-1035/veh), FGFR1OP (ProbeSet 11751329_s_at) / Fold change (Aza/veh), VPS36 (ProbeSet 11739960_a_at) / Fold change (ACY-1035/veh), VPS36 (ProbeSet 11739960_a_at) / RFU SYPL1 (11715823_x_at) / Fold change /veh SYPL1 (11715823_x_at) / RFU IGFBP7 (11715501_s_at) / Fold change /veh IGFBP7 (11715501_s_at) / RFU REEP3 (11722064_at) / Fold change /veh REEP3 (11722064_at) / RFU IGLL1 (11728026_x_at) / Fold change /veh IGLL1 (11728026_x_at): dose or concentration left out as unconfirmed. Particulars: ProbeSet 11721521_at; LIST B.

The structures appear in SMILES notation.

The text below walks through data of publication PMC5218480 (PLoS ONE, 2017).

As for `Nc1ncn([C@@H]2O[C@H](CO)[C@@H](O)[C@H]2O)c(=O)n1` [azacitidine], the “RFU, ZDHHC17” value stood at 48.06 RFU.
